For 5 molecules, IC50 results are on record in patent publication US20240270740A1, “INHIBITORS OF CYCLIC GMP-AMP SYNTHASE AND USES THEREOF” (Ventus Therapeutics U.S., Inc., priority 2022, published 2024).

In assay [1] the target is T1, hcGAS (Homo sapiens, UniProt Q8N884). The assay is described as follows: hcGAS LCMS assay (direct measurement of cGAMP production). The assay is classed as biochemical. The following applies: 0.5 nM hcGAS, 100 μM ATP, 100 μM GTP, 25 nM dsDNA, 4 h incubation. An outline of the steps:
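Direct LC/MS readout of cGAMP formed: 4-h enzyme–substrate incubation with compound, stopped by acetonitrile/water quench carrying isotope-labelled cGAMP (0.15 mM) as standard. Potency reported as IC50 ranges.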

The target in assay [2] is T1, hcGAS. As to the kind of experiment: hcGAS Kinase-Glo assay (ATP depletion). The class given is biochemical. To be noted: 40 nM hcGAS, 100 μM ATP, 100 μM GTP, 25 nM dsDNA, 3 h incubation. An outline of the steps:
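Human cGAS activity measured indirectly as ATP depletion by Kinase-Glo luminescence, following the Lama et al. method with modified conditions. Output is IC50, binned into potency categories.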

Each structure is given as a SMILES string.

T1 sequence (Q8N884 whole entry): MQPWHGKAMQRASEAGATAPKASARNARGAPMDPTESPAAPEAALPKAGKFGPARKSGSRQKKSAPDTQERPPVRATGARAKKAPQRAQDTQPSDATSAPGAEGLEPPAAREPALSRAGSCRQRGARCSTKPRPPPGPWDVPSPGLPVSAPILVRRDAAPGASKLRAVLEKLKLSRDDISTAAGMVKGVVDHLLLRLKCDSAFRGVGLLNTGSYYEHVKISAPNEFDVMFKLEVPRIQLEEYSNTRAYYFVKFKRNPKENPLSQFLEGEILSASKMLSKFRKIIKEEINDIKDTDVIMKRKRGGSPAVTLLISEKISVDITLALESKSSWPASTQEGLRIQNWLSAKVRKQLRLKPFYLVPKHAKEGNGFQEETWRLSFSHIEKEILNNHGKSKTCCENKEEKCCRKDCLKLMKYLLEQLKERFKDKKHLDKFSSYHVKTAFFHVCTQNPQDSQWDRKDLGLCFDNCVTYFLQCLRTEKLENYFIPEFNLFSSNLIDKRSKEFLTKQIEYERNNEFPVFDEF

As usually defined, the IC50 is the concentration needed to halve the response being measured. Higher therefore signals lower potency. With `COc1c(NC23CC(CC#N)(C2)C3)cc(C(=O)Nc2nnc(-n3nccc3C)s2)oc1=O` [Compound 116, 4-((3-(cyanomethyl)bicyclo[1.1.1]pentan-1-yl)amino)-3-methoxy-N-(5-(5-methyl-1H-pyrazol-1-yl)-1,3,4-thiadiazol-2-yl)-2-oxo-2H-pyran-6-carboxamide], the concentration for half-maximal inhibition (IC50) against hcGAS [1] lay in the range of 5 to 20 nM; against hcGAS [2], 10 to 30 nM.

In the case of `COc1c(N[C@H]2CC[C@@H](O)CC2)cc(C(=O)Nc2nnc(-n3nccc3C)s2)oc1=O` [Compound 220], the IC50 at hcGAS [1] fell in the range of 5 to 20 nM; on hcGAS [2], 10 to 30 nM.

For `COc1c(N[C@H]2CC[C@H](OC)C2)cc(C(=O)Nc2nnc(-n3nccc3C)s2)oc1=O` (racemic) [Rac-109, 3-methoxy-4-(((trans)-3-methoxycyclopentyl)amino)-N-(5-(5-methyl-1H-pyrazol-1-yl)-1,3,4-thiadiazol-2-yl)-2-oxo-2H-pyran-6-carboxamide], the IC50 on hcGAS [1] lay within 5 to 20 nM; against hcGAS [2], 10 to 30 nM.

For the molecule `COC[C@H](C)Nc1cc(C(=O)Nc2nnc(-n3nccc3C)s2)oc(=O)c1OC` [Compound 64, (S)-3-methoxy-4-((1-methoxypropan-2-yl)amino)-N-(5-(5-methyl-1H-pyrazol-1-yl)-1,3,4-thiadiazol-2-yl)-2-oxo-2H-pyran-6-carboxamide], the results for the IC50 at hcGAS [1] and on hcGAS [2] were 20 to 60 nM and 30 to 100 nM, respectively.

In the case of `COc1c(N2CCCC2)cc(C(=O)Nc2nnc(-n3nccc3C)s2)oc1=O` [Compound 216, 3-methoxy-N-(5-(5-methyl-1H-pyrazol-1-yl)-1,3,4-thiadiazol-2-yl)-2-oxo-4-(pyrrolidin-1-yl)-2H-pyran-6-carboxamide], the IC50 against hcGAS [1] is 5 to 20 nM; on hcGAS [2] it was 30 to 100 nM.
